Source: patent US6737383B1, “Herbicidal oxadiazolidines” (priority 1999, dated 2004)

Columns and labels:
rape = test: Test B pre/postemergence rape; format: in vivo, Brassica napus
Outline: (§1)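 Herbicidal effect was estimated by eye on a ten-point control scale after plants spent twelve to sixteen days in a greenhouse following soil or foliar treatment. Foliar sprays targeted plants at one to four leaves; all doses were formulated in a non-phytotoxic solvent with surfactant.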

wheat = test: Test B pre/postemergence wheat; format: in vivo, Triticum aestivum
Outline: as §1

velvetleaf = test: Test B pre/postemergence velvetleaf; format: in vivo, Abutilon theophrasti
Outline: as §1

blackgrass = test: Test E blackgrass; format: in vivo, Alopecurus myosuroides; conditions: Preemergence
winter wheat [1] = test: Test E winter wheat; format: in vivo, Triticum aestivum; conditions: Postemergence; for Plant response rating, Wheat (winter): 0 to 100 scale
Outline: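 Greenhouse test: for postemergence, foliar application at 1- to 4-leaf stage; compound in non-phytotoxic solvent with surfactant. Rating is visual, relative to untreated controls, about 21 to 28 days after treatment.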

bamyardgrass = test: Test B flood test barnyardgrass; format: in vivo, Echinochloa crus-galli
Outline: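 Read-out is a visual response score from 0 (no effect) to 10 (complete control), assigned by comparison with untreated controls. Treatment was applied at the 2-leaf stage, and plants stayed in the greenhouse for twelve to sixteen days before scoring.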

green foxtail = test: Test E green foxtail; format: in vivo, Setaria viridis; conditions: Preemergence
Italian ryegrass = test: Test E Italian ryegrass; format: in vivo, Lolium multiflorum; conditions: Preemergence
wild oat = test: Test E wild oat; format: in vivo, Avena fatua; conditions: Preemergence
winter wheat [2] = test: Test E winter wheat; format: in vivo, Triticum aestivum; conditions: Preemergence
Spanishneedles = test: Test D Spanishneedles; format: in vivo, Bidens bipinnata; conditions: Preemergence, 0 to 100 scale
Outline: (§2)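 Scoring used a 0–100 visual injury scale, with 0 meaning no effect and 100 complete control, assessed 14–21 days after application alongside untreated pots. Preemergence treatments went onto sandy loam surfaces of separately potted seeds within a day of sowing.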

winter barley = test: Test E winter barley; format: in vivo, Hordeum vulgare; conditions: Preemergence
sandbur = test: Test D sandbur; format: in vivo, Cenchrus echinatus; conditions: Preemergence, 0 to 100 scale
Outline: as §2

[3] = Preemergence, Rate 62 g/ha, scale of 0 to 10 where 0 is no effect and 10 is complete control
[4] = Preemergence, Rate 250 g/ha, scale of 0 to 10 where 0 is no effect and 10 is complete control
[5] = Preemergence, Rate 500 g/ha, scale of 0 to 10 where 0 is no effect and 10 is complete control
[6] = Rate 62 g/ha, Postemergence, scale of 0 to 10 where 0 is no effect and 10 is complete control
[7] = Rate 125 g/ha, Preemergence, scale of 0 to 10 where 0 is no effect and 10 is complete control
[8] = Rate 500 g/ha, Postemergence, scale 0 to 10, 0 no effect, 10 complete control
[9] = Rate 31 g/ha, 0 to 100 scale, 0 no effect, 100 complete control
[10] = Rate 62 g/ha, 0 to 100 scale, 0 no effect, 100 complete control
[11] = Rate 125 g/ha, 0 to 100 scale (0 no effect, 100 complete control)
[12] = Rate 500 g/ha, 0 to 100 scale where 0 is no effect and 100 is complete control
[13] = Rate 16 g/ha, 0 no injury, 100 complete control
[14] = Rate 32 g/ha, 0 no injury, 100 complete control
[15] = Rate 64 g/ha, 0 no injury, 100 complete control
[16] = Rate 125 g/ha, 0 no injury, 100 complete control

CC(C)N(C(=O)n1oc(=O)n(C2CC2)c1=O)c1ccc(F)cc1 [Compound 242]
100: Blackgrass plant response rating (0 to 100 scale) (blackgrass; Rate 250 g/ha) | Plant response rating, Green foxtail (green foxtail; [12]) | Plant response rating, I. Ryegrass (Italian ryegrass; [12]) | Plant response rating, Wild oat (wild oat; [12]) | Plant response rating, Sandbur (sandbur; Rate 250 g/ha) | Plant response rating, Sandbur (sandbur; Rate 500 g/ha)
85: Plant response rating, Barley (winter) (winter barley; [12])
65: Plant response rating, Wheat (winter) (winter wheat [1]; Rate 62 g/ha) | Plant response rating, I. Ryegrass (Italian ryegrass; [9]) | Plant response rating, Wheat (winter) (winter wheat [2]; [11])
50: Plant response rating, Green foxtail (green foxtail; [9]) | Plant response rating, Wild oat (wild oat; [9])
95: Plant response rating, Blackgrass (blackgrass; [11]) | Plant response rating, I. Ryegrass (Italian ryegrass; [11]) | Plant response rating, Wheat (winter) (winter wheat [2]; [12])
70: Plant response rating, Blackgrass (blackgrass; [10]) | Plant response rating, Green foxtail (green foxtail; [11]) | Plant response rating, I. Ryegrass (Italian ryegrass; [10])
4: Plant response rating (0 to 10; 0 is no effect, 10 is complete control), Rape (rape; Rate 250 g/ha, Postemergence) | Wheat plant response rating (wheat; [6])
98: Plant response rating, Blackgrass (blackgrass; [12]) | Green foxtail plant response rating (0 to 100 scale) (green foxtail; Rate 250 g/ha) | I. Ryegrass plant response rating (0 to 100 scale) (Italian ryegrass; Rate 250 g/ha) | Wild oat plant response rating (0 to 100 scale) (wild oat; Rate 250 g/ha)
6: Rape plant response rating (rape; [7]) | Velvetleaf plant response rating (velvetleaf; [3])
40: Plant response rating, Wheat (winter) (winter wheat [2]; [10]) | Plant response rating, Spanishneedles (Spanishneedles; Rate 500 g/ha) | Plant response rating, Barley (winter) (winter barley; [11])
90: Plant response rating, Wheat (winter) (winter wheat [1]; Rate 500 g/ha, 0 is no effect, 100 is complete control) | Sandbur plant response rating (sandbur; [16])
55: Plant response rating, Blackgrass (blackgrass; [9]) | Plant response rating, Wheat (winter) (winter wheat [1]; Rate 31 g/ha, 0 no effect, 100 complete control) | Wheat (winter) plant response rating (0 to 100 scale) (winter wheat [2]; Rate 250 g/ha)
5: Wheat plant response rating (wheat; [3])
60: Plant response rating, Wild oat (wild oat; [10]) | Plant response rating, Wild oat (wild oat; [11]) | Barley (winter) plant response rating (0 to 100 scale) (winter barley; Rate 250 g/ha)
30: Plant response rating, Wheat (winter) (winter wheat [2]; [9]) | Plant response rating, Barley (winter) (winter barley; [9]) | Plant response rating, Barley (winter) (winter barley; [10])
10: Rape plant response rating (rape; [4]) | Plant response rating, Rape (rape; [5]) | Plant response rating, Wheat (wheat; [5]) | Plant response rating, Velvetleaf (velvetleaf; [5]) | Plant response rating, Wheat (winter) (winter wheat [1]; Rate 125 g/ha, 0 is no effect, 100 is complete control) | Wheat (winter) plant response rating (winter wheat [1]; Rate 250 g/ha, 0 to 100 scale where 0 is no effect and 100 is complete control) | Spanishneedles plant response rating (Spanishneedles; [16]) | Plant response rating, Spanishneedles (Spanishneedles; Rate 250 g/ha)
3: Velvetleaf plant response rating (velvetleaf; [6])
7: Wheat plant response rating (wheat; [7]) | Velvetleaf plant response rating (velvetleaf; [8])
0: Rape plant response rating (rape; [3]) | Rape plant response rating (rape; [6]) | Barnyardgrass plant response rating (bamyardgrass; Rate 62 g/ha, headed Pre-emergence (flood test species), scale 0 to 10 (0 no effect, 10 complete control)) | Barnyardgrass plant response rating (bamyardgrass; Rate 125 g/ha, Pre-emergence, flood test species, scale 0 to 10 where 0 is no effect and 10 is complete control) | Barnyardgrass plant response rating (bamyardgrass; Rate 250 g/ha, Pre-emergence, flood-test species, scale 0 to 10, 0 is no effect, 10 is complete control) | Barnyardgrass plant response rating (bamyardgrass; Rate 500 g/ha, Pre-emergence, flood test species, scale 0 to 10 (0 no effect, 10 complete control)) | Plant response rating, Spanishneedles (Spanishneedles; [13]) | Plant response rating, Spanishneedles (Spanishneedles; [14]) | Spanishneedles plant response rating (Spanishneedles; [15]) | Plant response rating, Sandbur (sandbur; [13]) | Plant response rating, Sandbur (sandbur; [14]) | Sandbur plant response rating (sandbur; [15])
9: Wheat plant response rating (wheat; [4])
8: Rape plant response rating (rape; [8]) | Wheat plant response rating (wheat; [8]) | Velvetleaf plant response rating (velvetleaf; [4]) | Velvetleaf plant response rating (velvetleaf; [7])
